# In the oligonucleotide strings, read from the 5' end, every base follows the letter of its sugar. An asterisk marks phosphorothioate; unmarked linkages are phosphodiester. Other units and linkages are bracketed, terminal groups are in braces. A string of capitals states the bases alone. d = 2'-deoxy (DNA)
# Test system: human meltrin α RNA
# Assay: Suppression of human meltrin α expression by antisense compound in RD cell (real time PCR)
# Assay type: cell-based
# Conditions: 50 nM; RD cell; corrected by GAPDH
# Procedure: First, RD cell (ATCC) was suspended in DMEM containing 10% fetal bovine serum (FBS, SIGMA), and the suspension was inoculated in 6 well culture plate at 2.5×10^5 cells/well/2 mL. After incubating overnight at 37° C. in the presence of 5% CO2, the cells were washed twice with serum-free DMEM, and Opti-MEM medium (GIBCO) was added at 800 μL/well.
# Gene transfection reagent Lipofectin (Invitrogen) was diluted with Opti-MEM to 20 μg/mL, and the dilution was allowed to stand at room temperature for 30 minutes. Next, the antisense oligodeoxynucleotide synthesized as described above was heated at 90° C. for 3 minutes, and after quenching on ice, diluted with Opti-MEM to a concentration 10 times higher than the final concentration. Equal amounts of the Lipofectin in Opti-MEM and the antisense oligo DNA in Opti-MEM were mixed, and the mixture was incubated at room temperature for 15 minutes and added to 6 well plate at 200 μL/well.
# The culture was incubated at 37° C. for 4 hours in the presence of 5% CO2, and the culture supernatant containing the Lipofectin was removed. The cells were washed twice with serum-free DMEM, and after adding 1 mL/well of Opti-MEM and incubating for 18 hours at 37° C. in the presence of 5% CO2, the cells were subjected to the measurement of the level of expression of meltrin α RNA.
# After the washing, RNA was isolated from the cell by using RNA isolation kit (RNeasy Micro Kit, QIAGEN) according to the protocol of the kit, and RNA concentration was determined by measuring absorbance at a wavelength of 260 nm with a spectrophotometer (Nano prop, LMS Co., Ltd.) (1OD=40 μg/mL). After the quantitation, the RNA was prepared to a concentration of 0.1 μg/μL by using DEPC-treated water.
# 0.35 μg of the isolated RNA, and 3.5 μL of 10× TaqMan buffer, 7.7 μL of 25 mM MgCl2, 7.0 μL of 2.5 mM each dNTP Mix, 1.75 μL of 50 μM Random Hexamers, 0.7 μL of 20 U/μL RNase inhibitor, and 0.9 μL of 50 U/μL MultiScribe Reverse Transcriptase (all purchased from Applied Biosystems) were mixed, and water was added to make up the total volume to 35 μL. This solution was maintained at 25° C. for 10 minutes, at 48° C. for 30 minutes, and at 95° C. for 5 minutes, and reverse transcription was conducted to synthesize cDNA.
# A solution in total volume of 20 μL containing 10 μL of TaqMan Universal PCR Master Mix, 0.4 μL of 10 μM TaqMan MGB Probe (sequence 5′FAM-caccgaaggacaatccca-MGB-3′: Applied Biosystems), 0.1 μL of 50 μM Forward primer (sequence ggaagccgccagattcct) for detecting meltrin α, 0.1 μL of 50 μM Reverse primer (sequence […]) for detecting meltrin α (all purchased from Sigma-Genosys), 5 μL of the cDNA solution of (3), and 4.4 μL of water was prepared, and after maintaining the solution at 50° C. for 2 minutes and at 95° C. for 10 minutes, PCR was conducted by repeating 40 cycles of 95° C. for 15 seconds and 60° C. for 1 minute in ABI Prism 7000.
# The amount of the human meltrin α RNA was measured by conducting real time PCR by using the plasmid containing the cDNA coding for the human meltrin α for the template to generate the standard curve, and calculating RNA copy number of the meltrin α in each sample. The level of expression of GAPDH was also determined by using a primer and probe set for real time PCR of human GAPDH (Pre-Developed TaqMan Assay Reagents Human GAPDH (20×) (Cat# 4310884E, Applied Biosystems).
# The results of the real time PCR of the meltrin α was corrected by the level of expression of the GAPDH to calculate the suppression rate. […]
row,Substance,"suppression rate of expression, 50 nM"
1,H110: caagccctgggtccggcatg (dC*dA*dA*dG*dC*dC*dC*dT*dG*dG*dG*dT*dC*dC*dG*dG*dC*dA*dT*dG; antisense),+ (“+” when the suppression rate was at least 30%)

# Same assay, conditions: 200 nM; RD cell; corrected by GAPDH
row,Substance,"suppression rate of expression, 200 nM"
1,H076: tccaggctggtctccaagtc (dT*dC*dC*dA*dG*dG*dC*dT*dG*dG*dT*dC*dT*dC*dC*dA*dA*dG*dT*dC),++ (“++” when the suppression rate was at least 50%)
2,H077: ggcacacccccattcctttc (dG*dG*dC*dA*dC*dA*dC*dC*dC*dC*dC*dA*dT*dT*dC*dC*dT*dT*dT*dC),+ (“+” when the suppression rate was at least 30%)
3,H079: tggcccccgaaagactccct (dT*dG*dG*dC*dC*dC*dC*dC*dG*dA*dA*dA*dG*dA*dC*dT*dC*dC*dC*dT; antisense),++ (“++” when the suppression rate was at least 50%)
4,H080: caaatctgttcccacacttc (dC*dA*dA*dA*dT*dC*dT*dG*dT*dT*dC*dC*dC*dA*dC*dA*dC*dT*dT*dC; antisense),+ (“+” when the suppression rate was at least 30%)
5,H082: tcctctggctccccacagtc (dT*dC*dC*dT*dC*dT*dG*dG*dC*dT*dC*dC*dC*dC*dA*dC*dA*dG*dT*dC; antisense),+ (“+” when the suppression rate was at least 30%)
6,H084: cagggtacaggtggtggcat (dC*dA*dG*dG*dG*dT*dA*dC*dA*dG*dG*dT*dG*dG*dT*dG*dG*dC*dA*dT; antisense),++ (“++” when the suppression rate was at least 50%)
7,H085: gcgcacacagcgtccggctt (dG*dC*dG*dC*dA*dC*dA*dC*dA*dG*dC*dG*dT*dC*dC*dG*dG*dC*dT*dT; antisense),+ (“+” when the suppression rate was at least 30%)
8,H088: gagtccctgcacgctgttcc (dG*dA*dG*dT*dC*dC*dC*dT*dG*dC*dA*dC*dG*dC*dT*dG*dT*dT*dC*dC; antisense),+ (“+” when the suppression rate was at least 30%)
9,H089: ggaggtcacaggagttgctg (dG*dG*dA*dG*dG*dT*dC*dA*dC*dA*dG*dG*dA*dG*dT*dT*dG*dC*dT*dG; antisense),+ (“+” when the suppression rate was at least 30%)
10,H090: ggcccctgtgcagaactctg (dG*dG*dC*dC*dC*dC*dT*dG*dT*dG*dC*dA*dG*dA*dA*dC*dT*dC*dT*dG; antisense),++ (“++” when the suppression rate was at least 50%)
11,H091: ttggctgggcagtgagggct (dT*dT*dG*dG*dC*dT*dG*dG*dG*dC*dA*dG*dT*dG*dA*dG*dG*dG*dC*dT; antisense),++ (“++” when the suppression rate was at least 50%)
12,H092: gcccatcgtgcaggtacacg (dG*dC*dC*dC*dA*dT*dC*dG*dT*dG*dC*dA*dG*dG*dT*dA*dC*dA*dC*dG; antisense),++ (“++” when the suppression rate was at least 50%)
13,H093: gtccacatcctgacatgagt (dG*dT*dC*dC*dA*dC*dA*dT*dC*dC*dT*dG*dA*dC*dA*dT*dG*dA*dG*dT; antisense),+ (“+” when the suppression rate was at least 30%)
14,H094: atgccattgtagcagtagcc (dA*dT*dG*dC*dC*dA*dT*dT*dG*dT*dA*dG*dC*dA*dG*dT*dA*dG*dC*dC; antisense),+ (“+” when the suppression rate was at least 30%)
15,H096: tccccagagtgtgacacact (dT*dC*dC*dC*dC*dA*dG*dA*dG*dT*dG*dT*dG*dA*dC*dA*dC*dA*dC*dT; antisense),+ (“+” when the suppression rate was at least 30%)
16,H098: ctctctcaaagcagatccca (dC*dT*dC*dT*dC*dT*dC*dA*dA*dA*dG*dC*dA*dG*dA*dT*dC*dC*dC*dA; antisense),+ (“+” when the suppression rate was at least 30%)
17,H099: aggatcacctgcagaattga (dA*dG*dG*dA*dT*dC*dA*dC*dC*dT*dG*dC*dA*dG*dA*dA*dT*dT*dG*dA; antisense),+ (“+” when the suppression rate was at least 30%)
18,H100: actttgccacagttgccata (dA*dC*dT*dT*dT*dG*dC*dC*dA*dC*dA*dG*dT*dT*dG*dC*dC*dA*dT*dA; antisense),+ (“+” when the suppression rate was at least 30%)
19,H102: agcatctctcatctcgcatt (dA*dG*dC*dA*dT*dC*dT*dC*dT*dC*dA*dT*dC*dT*dC*dG*dC*dA*dT*dT; antisense),+ (“+” when the suppression rate was at least 30%)
20,H104: gccggctggcacctccttga (dG*dC*dC*dG*dG*dC*dT*dG*dG*dC*dA*dC*dC*dT*dC*dC*dT*dT*dG*dA; antisense),+++ (“+++” when the suppression rate was at least 70%)
21,H105: ggcattggtaccaatgactg (dG*dG*dC*dA*dT*dT*dG*dG*dT*dA*dC*dC*dA*dA*dT*dG*dA*dC*dT*dG; antisense),+ (“+” when the suppression rate was at least 30%)
22,H107: ggcctccttgctgcaggggg (dG*dG*dC*dC*dT*dC*dC*dT*dT*dG*dC*dT*dG*dC*dA*dG*dG*dG*dG*dG; antisense),++ (“++” when the suppression rate was at least 50%)
23,H109: tcatcgcccaagtacacgtg (dT*dC*dA*dT*dC*dG*dC*dC*dC*dA*dA*dG*dT*dA*dC*dA*dC*dG*dT*dG; antisense),++ (“++” when the suppression rate was at least 50%)
24,H110: caagccctgggtccggcatg (dC*dA*dA*dG*dC*dC*dC*dT*dG*dG*dG*dT*dC*dC*dG*dG*dC*dA*dT*dG; antisense),++ (“++” when the suppression rate was at least 50%)
25,H111: acactttgtgcctgcaagca (dA*dC*dA*dC*dT*dT*dT*dG*dT*dG*dC*dC*dT*dG*dC*dA*dA*dG*dC*dA; antisense),+ (“+” when the suppression rate was at least 30%)

# Same assay, conditions: 200 nM; chimeric 2′-methoxy antisense oligonucleotides; RD cell
row,Substance,"suppression rate of expression, 200 nM"
1,"H076-OMe1: chimeric antisense oligonucleotide GCTGGtctccaagtcCTTCC, uppercase 2′-methoxy nucleotides, lowercase phosphorothioate nucleotides (GCTGGTCTCCAAGTCCTTCC; 2'-O-methyl at 1, 2, 3, 4, 5, 16, 17, 18, 19, 20, other sugars, backbone and T or U not given here; lowercase gap nucleotides phosphorothioate)",++ (“++” when the suppression rate was at least 50%)
2,"H076-OMe2: chimeric antisense oligonucleotide CTTTCtccaggctggTCTCC, uppercase 2′-methoxy nucleotides, lowercase phosphorothioate nucleotides (CTTTCTCCAGGCTGGTCTCC; 2'-O-methyl at 1, 2, 3, 4, 5, 16, 17, 18, 19, 20, other sugars, backbone and T or U not given here; lowercase gap nucleotides phosphorothioate)",+++ (“+++” when the suppression rate was at least 70%)
3,"H077-OMe2: chimeric antisense oligonucleotide AAACAggcacaccccCATTC, uppercase 2′-methoxy nucleotides, lowercase phosphorothioate nucleotides (AAACAGGCACACCCCCATTC; 2'-O-methyl at 1, 2, 3, 4, 5, 16, 17, 18, 19, 20, other sugars, backbone and T or U not given here; lowercase gap nucleotides phosphorothioate)",+ (“+” when the suppression rate was at least 30%)

# From US20080292619A1, “Pharmaceutical Composition Containing Meltrin Antagonist” (MOCHIDA PHARMACEUTICAL CO., LTD., priority 2004, published 2008)
